This is an account of results in ChEMBL document CHEMBL1201862, “PubChem BioAssay data set” (2004).

In assay [1] the target is T1, Estrogen receptor (Homo sapiens, UniProt P03372). Kind of assay: ERα coactivator recruitment enhancers – biochemical, TR-FRET, ERα LBD, dose response (AID 737).
Assay [2] addresses ATP-dependent molecular chaperone HSP82 (Candida albicans (strain WO-1) (Yeast), UniProt C4YTQ8). Kind of assay: steroid-induced GRE reporter decrease in yeast – S. cerevisiae, luminescence, Hsp90 inhibitor project, dose response (AID 2400).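 Also: beta-galactosidase luminescence from glucocorticoid response element reporter as proxy for Hsp90 function; inhibitor potency where signal loss means Hsp90 inhibition.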 The assay is classed as functional, cell-based.
A short description of assay [3]: Luminescence Cell-Based Dose Confirmation HTS to Identify Inhibitors of Polyadenylation. The assay is classed as functional.
Assay [4] deals with T2, Serine/threonine-protein phosphatase (Candida dubliniensis (strain CD36 / CBS 7987 / NCPF 3949 / NRRLY-17841) (Yeast), UniProt B9W6M3).
T2 sequence (B9W6M3 whole entry): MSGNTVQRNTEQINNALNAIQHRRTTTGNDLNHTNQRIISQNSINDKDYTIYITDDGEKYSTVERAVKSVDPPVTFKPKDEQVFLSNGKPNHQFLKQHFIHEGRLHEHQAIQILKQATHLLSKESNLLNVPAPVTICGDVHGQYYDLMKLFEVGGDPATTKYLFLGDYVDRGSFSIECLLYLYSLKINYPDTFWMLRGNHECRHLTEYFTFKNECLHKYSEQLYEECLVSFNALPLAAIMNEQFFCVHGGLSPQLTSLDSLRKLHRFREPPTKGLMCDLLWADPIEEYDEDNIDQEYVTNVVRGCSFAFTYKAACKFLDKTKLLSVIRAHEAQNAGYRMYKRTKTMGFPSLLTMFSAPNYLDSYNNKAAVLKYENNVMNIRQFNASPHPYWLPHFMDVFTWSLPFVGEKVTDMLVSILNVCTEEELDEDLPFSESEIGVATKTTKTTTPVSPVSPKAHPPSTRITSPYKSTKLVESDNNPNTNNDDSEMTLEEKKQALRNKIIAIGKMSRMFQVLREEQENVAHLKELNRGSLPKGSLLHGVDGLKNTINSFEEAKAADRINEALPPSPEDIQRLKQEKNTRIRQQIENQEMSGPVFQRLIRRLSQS
Kind of assay: blockers of CaCl2-induced CDRE-lacZ signaling – S. cerevisiae, luminescence, secondary, dose response (AID 2388).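 Also: yeast reporter cells carrying a calcineurin-responsive lacZ construct stimulated with calcium chloride; luminescent beta-galactosidase reporter signal in whole cells rather than isolated phosphatase activity; potency for inhibition where a drop in reporter signal means calcineurin blockade.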 The assay is classed as functional, cell-based.

Assay [5] in a line: fluconazole-exposed Candida albicans growth modulators – fluorescence, retest, confirmation (AID 2467). The assay is classed as functional, cell-based.
A short description of assay [6]: NIH-3T3 fibroblast cytotoxicity, dose response, cytotoxicity control, cell-based, fluorescence, Alamar Blue, secondary assay (AID 2327).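 Also: NIH-3T3 mouse fibroblasts cultured with fluconazole at 8 µg/mL.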 Type of assay: functional.
Assay [7] deals with T3, E3 ubiquitin-protein ligase XIAP (Homo sapiens, UniProt P98170). Kind of assay: Counter Screen using XIAP-Bir3 for Chemical Antagonists of Bir1/2 domains of IAP-family anti-apoptotic proteins. [Related pubchem assays (depositor defined):AID1018, AID1449, AID1514, AID1638, AID1749, AID1750, AID488957, AID488963]. (Counterscreens check selectivity or assay interference.)
Assay [8] deals with T3, E3 ubiquitin-protein ligase XIAP. Kind of assay: small molecules displacing peptide from XIAP – biochemical, IAP family, fluorescence polarization (AID 1018). The assay is classed as functional.
Assay [9] in a line: HEK-293T viability loss after treatment – luminescence, T-cell screen hits, cytotoxicity control for TCR NF-kB inhibitor project, dose response (AID 489026).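 Also: cells exposed to compound about 14 hours before the viability readout.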 Type of assay: functional, cell-based.
Assay [10] in a line: Luminescence Cell-Based Dose Retest to Confirm Inhibitors of Cancer Stem Cells. [Related pubchem assays (depositor defined):AID2717, AID2721]. The assay is classed as functional. Conditions: Homo sapiens.
A short description of assay [11]: Luminescence-based dose response cell-based high throughput screening assay for cytotoxic compounds using the IEC-6 intestinal epithelial cell line. [Related pubchem assays: 1858 (Summary AID.), 1825 (Counterscreen.), 1907 (Confirmation screen.)]. Type of assay: functional.
Assay [12] addresses T4, Sphingosine 1-phosphate receptor 2 (Homo sapiens, UniProt O95136). Kind of assay: Dose Response Cell-Based Assay for Agonists of the Sphingosine 1-Phosphate Receptor 2 (S1P2): Purchased Analogues. [Related pubchem assays: 1192, 373, 439 ]. Type of assay: functional.
For assay [13], the target named is Sphingosine 1-phosphate receptor 3 (Homo sapiens, UniProt Q99500). Kind of assay: Dose Response Cell-Based Assay for Agonists of the Sphingosine 1-Phosphate Receptor 3 (S1P3): Purchased Analogues. [Related pubchem assays: 373, 439 ]. Type of assay: functional.
In assay [14] the target is Sphingosine 1-phosphate receptor 1 (Homo sapiens, UniProt P21453). Kind of assay: Dose Response Cell-Based Assay for Agonists of the Sphingosine 1-Phosphate Receptor 1 (S1P1): Purchased Analogues. [Related pubchem assays: 1192, 373, 439 ]. The assay is classed as functional.
Assay [15] has as its target Estrogen receptor beta (Homo sapiens, UniProt Q92731).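 Also: recombinant ER-beta bound to coactivator SRC1 peptide in presence of estradiol agonist; inhibitors block coactivator peptide binding and lower the FRET signal.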
Assay [16] has as its target T1, Estrogen receptor.
For assay [17], the target named is Inward rectifier potassium channel 2 (Mus musculus, UniProt P35561). Kind of assay: Manual electrophysiological patch clamp assay for SAR compounds that inhibit/block inward-rectifying potassium ion channel Kir2.1. [Related pubchem assays: 1843 (Summary assay for Kir2.1 inhibitor assays.), 1672 (Primary HTS of 305616 compounds where 2592 were identified as active.)]. The assay is classed as functional. A general note: The patch-clamp technique gives a direct electrical read-out from membranes.

Assay [18] addresses NADPH oxidase 1 (Homo sapiens, UniProt Q9Y5S8). The assay is classed as functional, cell-based.
The target of assay [19] is T4, Sphingosine 1-phosphate receptor 2. Kind of assay: Dose Response Cell Based Assay for Agonists of the S1P2 Receptor of Purchased Analogues. [Related pubchem assays: 729, 843, 854, 736 ]. Type of assay: functional.
For assay [20], the target named is Potassium voltage-gated channel subfamily KQT member 2 (Rattus norvegicus, UniProt O88943, W236L). Kind of assay: potentiation of rat KCNQ2 current – cell-based, automated electrophysiology, mechanism study for KCNQ2 potentiator project, dose response (AID 2603). Type of assay: functional.

Each structure is given as a SMILES string. Active and inactive are the calls of the source.
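For AC50 in this document: cells exposed to compound for roughly 70 hours or longer before luminescence read.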

T1 sequence (P03372 whole entry, the tested form may be a part): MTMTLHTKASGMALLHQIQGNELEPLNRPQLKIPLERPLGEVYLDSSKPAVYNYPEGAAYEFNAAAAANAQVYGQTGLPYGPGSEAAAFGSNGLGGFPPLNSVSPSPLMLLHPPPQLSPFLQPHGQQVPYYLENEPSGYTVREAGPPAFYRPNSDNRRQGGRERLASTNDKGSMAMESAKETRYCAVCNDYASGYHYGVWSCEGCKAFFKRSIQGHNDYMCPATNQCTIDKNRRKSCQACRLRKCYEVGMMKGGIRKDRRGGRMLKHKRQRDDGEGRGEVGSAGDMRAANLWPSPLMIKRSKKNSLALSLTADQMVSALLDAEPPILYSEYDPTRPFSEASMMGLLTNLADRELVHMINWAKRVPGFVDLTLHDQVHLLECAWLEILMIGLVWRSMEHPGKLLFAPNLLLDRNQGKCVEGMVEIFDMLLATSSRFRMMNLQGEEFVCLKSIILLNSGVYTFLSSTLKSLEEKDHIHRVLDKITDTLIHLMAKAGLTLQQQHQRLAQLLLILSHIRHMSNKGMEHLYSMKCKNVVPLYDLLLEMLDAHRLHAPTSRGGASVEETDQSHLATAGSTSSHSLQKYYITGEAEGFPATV
T4 sequence (O95136 whole entry): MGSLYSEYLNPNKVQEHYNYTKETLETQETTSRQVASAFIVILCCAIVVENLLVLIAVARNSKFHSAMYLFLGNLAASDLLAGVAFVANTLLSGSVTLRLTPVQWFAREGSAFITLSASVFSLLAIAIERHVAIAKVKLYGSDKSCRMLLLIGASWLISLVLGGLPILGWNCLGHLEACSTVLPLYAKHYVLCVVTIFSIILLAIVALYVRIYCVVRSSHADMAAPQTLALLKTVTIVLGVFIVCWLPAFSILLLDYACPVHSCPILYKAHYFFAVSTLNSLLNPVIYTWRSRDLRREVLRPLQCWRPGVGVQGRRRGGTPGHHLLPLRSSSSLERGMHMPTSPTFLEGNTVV
T3 sequence (P98170 whole entry): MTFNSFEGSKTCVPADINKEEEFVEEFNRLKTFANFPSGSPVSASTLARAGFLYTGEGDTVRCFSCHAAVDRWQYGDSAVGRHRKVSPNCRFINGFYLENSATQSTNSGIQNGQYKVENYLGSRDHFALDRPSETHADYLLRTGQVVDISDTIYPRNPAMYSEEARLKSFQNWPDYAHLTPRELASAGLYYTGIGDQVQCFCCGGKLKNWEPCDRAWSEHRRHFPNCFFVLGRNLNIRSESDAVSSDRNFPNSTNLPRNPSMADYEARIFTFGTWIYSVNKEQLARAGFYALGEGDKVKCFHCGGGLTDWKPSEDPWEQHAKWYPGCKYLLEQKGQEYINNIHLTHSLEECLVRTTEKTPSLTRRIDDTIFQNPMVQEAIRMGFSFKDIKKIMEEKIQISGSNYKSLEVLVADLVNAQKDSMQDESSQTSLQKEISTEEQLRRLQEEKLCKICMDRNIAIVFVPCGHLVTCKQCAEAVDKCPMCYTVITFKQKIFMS
Sphingosine 1-phosphate receptor 3, sequence (Q99500 whole entry): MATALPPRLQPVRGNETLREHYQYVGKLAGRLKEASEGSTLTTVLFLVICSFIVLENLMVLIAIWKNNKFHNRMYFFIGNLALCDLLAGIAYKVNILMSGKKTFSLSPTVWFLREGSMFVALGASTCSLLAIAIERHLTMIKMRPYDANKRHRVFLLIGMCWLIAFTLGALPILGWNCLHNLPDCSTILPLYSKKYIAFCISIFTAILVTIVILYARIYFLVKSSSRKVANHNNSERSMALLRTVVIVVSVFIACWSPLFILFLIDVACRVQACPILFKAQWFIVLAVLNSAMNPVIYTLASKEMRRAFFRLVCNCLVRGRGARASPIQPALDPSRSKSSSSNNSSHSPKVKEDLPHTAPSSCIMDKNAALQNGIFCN
Inward rectifier potassium channel 2, sequence (P35561 whole entry): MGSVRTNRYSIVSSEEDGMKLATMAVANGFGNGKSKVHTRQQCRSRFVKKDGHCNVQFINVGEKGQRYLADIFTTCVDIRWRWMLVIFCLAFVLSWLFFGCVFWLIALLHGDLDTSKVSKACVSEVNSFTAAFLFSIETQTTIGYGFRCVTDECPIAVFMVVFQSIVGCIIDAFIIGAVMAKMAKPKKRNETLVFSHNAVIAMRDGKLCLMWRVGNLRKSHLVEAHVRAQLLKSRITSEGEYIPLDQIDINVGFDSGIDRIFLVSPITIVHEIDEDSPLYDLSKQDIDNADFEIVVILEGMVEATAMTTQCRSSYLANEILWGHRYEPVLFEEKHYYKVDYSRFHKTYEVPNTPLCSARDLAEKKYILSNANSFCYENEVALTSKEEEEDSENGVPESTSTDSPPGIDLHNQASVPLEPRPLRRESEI
Sphingosine 1-phosphate receptor 1, sequence (P21453 whole entry): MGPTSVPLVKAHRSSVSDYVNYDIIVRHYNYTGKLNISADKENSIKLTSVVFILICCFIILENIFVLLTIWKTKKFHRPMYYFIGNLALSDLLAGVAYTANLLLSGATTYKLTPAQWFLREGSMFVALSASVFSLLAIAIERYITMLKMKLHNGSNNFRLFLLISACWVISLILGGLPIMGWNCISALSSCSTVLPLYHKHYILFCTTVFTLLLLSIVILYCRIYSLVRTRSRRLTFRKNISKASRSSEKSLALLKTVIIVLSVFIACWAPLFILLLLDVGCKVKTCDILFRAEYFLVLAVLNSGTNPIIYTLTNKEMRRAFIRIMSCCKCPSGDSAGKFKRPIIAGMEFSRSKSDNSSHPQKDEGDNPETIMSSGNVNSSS
Estrogen receptor beta, sequence (Q92731 whole entry): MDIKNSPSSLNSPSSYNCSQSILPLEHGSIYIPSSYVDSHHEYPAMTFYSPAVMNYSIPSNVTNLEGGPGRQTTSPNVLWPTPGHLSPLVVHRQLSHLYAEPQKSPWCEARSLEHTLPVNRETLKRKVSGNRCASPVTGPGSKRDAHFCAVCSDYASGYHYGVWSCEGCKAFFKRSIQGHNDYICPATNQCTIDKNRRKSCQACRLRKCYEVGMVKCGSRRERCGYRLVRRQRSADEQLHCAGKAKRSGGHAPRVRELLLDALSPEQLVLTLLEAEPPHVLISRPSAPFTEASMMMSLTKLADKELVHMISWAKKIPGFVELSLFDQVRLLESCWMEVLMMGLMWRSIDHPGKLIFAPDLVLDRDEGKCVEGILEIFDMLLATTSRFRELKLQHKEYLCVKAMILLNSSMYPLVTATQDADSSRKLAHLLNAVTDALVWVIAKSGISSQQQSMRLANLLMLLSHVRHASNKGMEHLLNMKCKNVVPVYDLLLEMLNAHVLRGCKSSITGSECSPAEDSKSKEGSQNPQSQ
NADPH oxidase 1, sequence (Q9Y5S8 whole entry): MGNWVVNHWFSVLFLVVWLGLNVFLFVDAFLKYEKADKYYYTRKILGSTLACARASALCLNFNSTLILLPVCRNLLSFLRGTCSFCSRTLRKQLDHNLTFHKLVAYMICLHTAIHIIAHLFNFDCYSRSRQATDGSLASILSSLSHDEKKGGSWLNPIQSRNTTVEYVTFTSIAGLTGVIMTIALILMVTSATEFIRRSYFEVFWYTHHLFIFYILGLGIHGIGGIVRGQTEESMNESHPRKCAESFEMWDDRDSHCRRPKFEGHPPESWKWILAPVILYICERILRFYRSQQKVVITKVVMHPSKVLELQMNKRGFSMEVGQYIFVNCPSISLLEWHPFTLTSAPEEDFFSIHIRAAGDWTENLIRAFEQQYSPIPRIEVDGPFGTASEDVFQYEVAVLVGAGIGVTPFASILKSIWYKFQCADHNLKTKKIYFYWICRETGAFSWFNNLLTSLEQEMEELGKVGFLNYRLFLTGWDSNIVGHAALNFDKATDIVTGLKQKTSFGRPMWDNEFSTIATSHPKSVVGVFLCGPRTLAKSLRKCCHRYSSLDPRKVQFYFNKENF
Potassium voltage-gated channel subfamily KQT member 2, sequence (O88943 whole entry W236L): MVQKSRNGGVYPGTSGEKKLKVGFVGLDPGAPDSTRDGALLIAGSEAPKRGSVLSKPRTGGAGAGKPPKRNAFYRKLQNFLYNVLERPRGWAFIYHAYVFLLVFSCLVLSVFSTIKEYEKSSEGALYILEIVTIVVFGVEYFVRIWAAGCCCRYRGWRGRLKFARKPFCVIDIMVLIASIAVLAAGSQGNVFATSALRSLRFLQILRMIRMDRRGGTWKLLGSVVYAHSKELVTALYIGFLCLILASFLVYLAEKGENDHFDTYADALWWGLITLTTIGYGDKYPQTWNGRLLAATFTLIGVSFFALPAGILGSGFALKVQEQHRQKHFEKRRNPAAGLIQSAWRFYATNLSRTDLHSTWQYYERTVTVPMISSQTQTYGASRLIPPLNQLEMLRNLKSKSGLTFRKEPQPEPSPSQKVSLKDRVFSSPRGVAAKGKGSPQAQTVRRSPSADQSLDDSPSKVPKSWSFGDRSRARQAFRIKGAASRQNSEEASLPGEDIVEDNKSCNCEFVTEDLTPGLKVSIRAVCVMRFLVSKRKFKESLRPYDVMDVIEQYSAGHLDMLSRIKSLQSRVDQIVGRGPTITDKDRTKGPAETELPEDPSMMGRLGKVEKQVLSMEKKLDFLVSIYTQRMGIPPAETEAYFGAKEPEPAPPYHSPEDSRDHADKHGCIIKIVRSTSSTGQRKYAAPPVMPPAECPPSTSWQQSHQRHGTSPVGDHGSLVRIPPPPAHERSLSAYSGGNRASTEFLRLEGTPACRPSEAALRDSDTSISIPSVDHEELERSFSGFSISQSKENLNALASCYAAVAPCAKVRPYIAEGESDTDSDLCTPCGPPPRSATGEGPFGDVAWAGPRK

Broadly, the EC50 is the concentration needed to bring the measured effect to its halfway point. As to `COc1cccc(C2CC(c3ccc(F)cc3)Nc3nc(N)nn32)c1` (stereo not given), the EC50 in [1] is 6.71 µM (not active).

In the case of `Cc1ccc(NC(=O)c2sc3nc(N)c(C#N)cc3c2N)cc1`, the EC50 was > 150 µM (inactive) in assay [2]; 15.2 µM (active) in assay [3]; > 180 µM (inactive) in assay [4]; 1.2 µM (active) in assay [5]; > 150 µM (inactive) in assay [6].

The IC50 is the concentration at which inhibition is half-maximal. With `Cc1ccc(NC(=O)CNC2CCS(=O)(=O)C2)cc1C` (stereo not given), the results for the IC50 in [7] and in [8] were > 100 µM (inactive) and > 100 µM (not active), respectively.

What is called AC50 is the concentration giving half of the maximal activity seen. Take `COc1ccc(NS(=O)(=O)c2cc(-c3cnc(C4CC4)o3)ccc2C)cc1`: the IC50 in assay [9] is 70.5 µM (inactive); in [11], 2.08 µM (active). Further, the AC50 in assay [10] was 0.405 µM (active).

On to `Cc1cc(C(=O)N(C)C2CCCCC2)no1`, for which the EC50 in [12] is recorded as > 10 µM (not active); in [13], > 50 µM (not active); in assay [14] it was > 50 µM (not active).

For `O=C(NCc1ccco1)c1cc2cc3ccc(Cl)cc3nc2o1`, the IC50 is > 50 µM (not active) in assay [15] and 17.7 µM (active) in assay [16].

Take `COc1ccc(CNCc2ccc(Cl)cc2)cc1`: in assay [17], the IC50 is 0.711 µM (active).

For the molecule `COc1ccc(NC(=O)Nc2ccc3c(c2)CCN3S(=O)(=O)c2ccccc2)cc1`, the IC50 in [18] is > 17 µM (not active).

Regarding `Cc1nc(C)c(C(=O)OCC(=O)c2cc(C)n(Cc3ccccc3)c2C)s1`, in assay [19], the EC50 was > 30 µM (not active).

With `CCOc1ccccc1NC(=O)NC(C)c1ccc2c(c1)OCO2` (stereo not given), the EC50 in assay [20] was 1.51 µM (active).
